Where a SMILES comes first, the peptide text is derived from it. The star is where a group is joined. Palmitoyl = CCCCCCCCCCCCCCCC(=O)*
Tested on: MCF-7 breast cancer cells
Assay: MTT cell toxicity assay in MCF-7 breast cancer cells
Format: cell-based
Details: MCF-7 cells, MTT; for GI50 / TGI: final 0.5% FBS, two days with compound; for TGI: concentration of total growth inhibition (cytostatic); for growth inhibition / potency in MCF-7 cells (in words): comparison with related peptides
Protocol: Cell Toxicity Assays: MCF-7 (breast cancer), T47D (breast cancer), Colo 205 (colon cancer), JM-1 (rat hepatoma), Sk Me1-2 (melanoma), PLC (human hepatoma), and HepG2 (human hepatoma) cells were obtained from American Type Cell Culture Collection. MCF-7 cells were grown in RPMI medium supplemented with 10% Fetal Bovine Serum. The rest of the cell lines were grown in DMEM medium supplemented with 10% Fetal Bovine Serum.
MTT 43-(4,5-Dimethylthiazol-2-yl)-2,5-diphenyltetrazolium) cell assay was performed using MCF-7 breast cancer cells. For the assay, cells were seeded into 96 well plates in medium containing 1% Fetal Bovine Serum and 100 μL of a cell suspension containing 5000 cells per well. Wells containing medium-only, and wells containing untreated cells, served as controls.
Seeded cells were allowed to attach and grow in the wells for 24 hours. A 5 mM stock solution of each peptide was made by dissolving approximately 1 mg of peptide in appropriate amount of DMSO. 2 mL dilutions were used to make 0.2 μM, 1.0 μM, 5.0 μM, and 10.0 μM concentration solutions of the compounds in serum-free medium. 100 μl, of the resulting 2× solutions were added to the corresponding wells to provide a final FBS concentration of 0.5% and 0.1 μM, 0.5 μM, 2.5 μM, and 5.0 μM dilutions of inhibitors. The cells were incubated with test compounds for two days. The control wells were given 100 μL of medium to ensure maximum similarity to the test wells so that all of the wells had 200 μL of medium during the growth period. An individual plate was made for Time Zero, to which the dye was added at the time of addition of compounds.
An alternative potency assay was used to test compounds in MCF-7 (breast cancer), T47D (breast cancer), Colo 205 (colon cancer), JM-1 (rat hepatoma), Sk MeI-2 (melanoma), PLC (human hepatoma), and HepG2 (human hepatoma) cells. Cells were suspended at a concentration of approximately 5000 cells per 100 μL of suspension in a 5% FBS RPMI medium. The cells were seeded into 96-count wells and incubated over night. After one day's incubation, the 5% FBS medium was aspirated and replaced with 100 μL of no serum RPMI medium containing 1 mg Bovine Serum Albumin (BSA) per 1 mL RPMI. Various concentrations of the test compounds were prepared by dilution in no-serum medium containing 1 mg BSA/mL. 75 μL of the test compound solutions were added to the wells, and the cells were allowed to incubate for 15-20 minutes, after which time 25 μL of human recombinant IGF-1 (Peprotech) solution was added to the wells to attain final concentrations of 10 ng IGF-1/mL medium. The control wells were given 175 μL of no-serum medium in addition to 25 μL of IGF-1 solution. An individual plate was made for time zero, in which the medium was also aspirated and replaced with 175 μL of no-serum medium and 25 μL of IGF-1. 15 μL of MTT dye was added and let incubate for 4 hours, after which time a stop stop solubilization solution was added. The stop solution lysed the cells and released the dye reduced by the remaining living cells. Absorbance of the wells at 544 nm was determined by a FLUOstar/POLARstar Galaxy (BMG Lab Technologies GmbH) microplate reader. The activity was calculated from the data using the formula: 100×[(T−T0)/(C−T0)] for T>T0 and 100×[(T−T0)/T0] for T<T0, wherein T0 corresponds to cell density at the time of drug addition, “T” is the optical density of the test well after a 48-h period of exposure to test drug, and “C” is the control optical density. The GI50 measures the growth inhibitory power of the test agent, and is defined as the concentration of test drug where 100×(T−T0)/(C−T0)=50. The TGI is the concentration of test drug where 100×(T−T0)/(C−T0)=0. Thus, the TGI signifies a cytostatic effect.

| Structure (SMILES) | GI50 [nM] | TGI [nM] | growth inhibition / potency in MCF-7 cells (in words) | cell killing activity (in words) |
| --- | --- | --- | --- | --- |
| CCCCCCCCCCCCCCCC(=O)N[C@@H](CCCNC(=N)N)C(=O)N[C@@H](CCC(N)=O)C(=O)N1CCC[C@H]1C(=O)N[C@@H](CC(=O)O)C(=O)NCC(=O)N1CCC[C@H]1C(=O)N[C@@H](CC(C)C)C(=O)NCC(=O)N1CCC[C@H]1C(=O)N[C@@H](CC(C)C)C(=O)N[C@@H](Cc1ccc(O)cc1)C(N)=O [IR-2, Pal-RQPDGPLGPLY-NH2] (Palmitoyl-RQPDGPLGPLY-NH2) | 60 ± 1 | 400 ± 50 | inhibited growth | – |
| CCCCCCCCCCCCCCCC(=O)N[C@@H](Cc1c[nH]cn1)C(=O)N[C@@H](CCCNC(=N)N)C(=O)N[C@@H](CCCCN)C(=O)N[C@@H](CCCNC(=N)N)C(=O)N[C@@H](CC(N)=O)C(=O)N[C@@H](CC(N)=O)C(=O)N[C@@H](CO)C(=O)N[C@@H](CCCNC(=N)N)C(=O)N[C@@H](CC(C)C)C(=O)NCC(=O)N[C@@H](CC(N)=O)C(=O)NCC(N)=O [Peptide 1, Pal-HRKRNNSRLGNG-NH2] (Palmitoyl-HRKRNNSRLGNG-NH2) | 1800 ± 50 | >5000 | – | – |
| CCCCCCCCCCCCCCCC(=O)N[C@@H](Cc1c[nH]cn1)C(=O)N[C@@H](CCCNC(=N)N)C(=O)N[C@@H](CCCCN)C(=O)N[C@@H](CCCNC(=N)N)C(=O)N[C@@H](CC(N)=O)C(=O)N[C@@H](CC(N)=O)C(=O)N[C@@H](CO)C(=O)N[C@@H](CCCNC(=N)N)C(=O)N[C@@H](CC(C)C)C(=O)NCC(N)=O [Peptide 2, Pal-HRKRNNSRLG-NH2] (Palmitoyl-HRKRNNSRLG-NH2) | 1300 ± 50 | >5000 | – | – |
| CCCCCCCCCCCCCCCC(=O)N[C@@H](Cc1c[nH]cn1)C(=O)N[C@@H](CCCNC(=N)N)C(=O)N[C@@H](CCCCN)C(=O)N[C@@H](CCCNC(=N)N)C(=O)N[C@@H](CC(N)=O)C(=O)N[C@@H](CC(N)=O)C(=O)N[C@@H](CO)C(=O)N[C@@H](CCCNC(=N)N)C(=O)N[C@@H](CC(C)C)C(=O)NCC(=O)N[C@@H](CC(N)=O)C(=O)NCC(=O)N[C@H](C(=O)N[C@@H](CC(C)C)C(=O)N[C@@H](Cc1ccc(O)cc1)C(=O)N[C@@H](C)C(=O)N[C@@H](CO)C(=O)N[C@H](C(=O)N[C@@H](CC(N)=O)C(N)=O)C(C)C)C(C)C [Peptide 3, Pal-HRKRNNSRLGNGVLYASVN-NH2] (Palmitoyl-HRKRNNSRLGNGVLYASVN-NH2) | – | 1550 ± 100 | – | exhibited cell killing activity |
| CCCCCCCCCCCCCCCC(=O)N[C@@H](Cc1c[nH]cn1)C(=O)N[C@@H](CCCNC(=N)N)C(=O)N[C@@H](CCCCN)C(=O)N[C@@H](CCCNC(=N)N)C(=O)N[C@@H](CC(N)=O)C(=O)N[C@@H](CC(N)=O)C(=O)N[C@@H](CO)C(=O)N[C@@H](CCCNC(=N)N)C(=O)N[C@@H](CC(C)C)C(=O)NCC(=O)N[C@@H](CC(N)=O)C(=O)NCC(=O)N[C@H](C(=O)N[C@@H](CC(C)C)C(=O)N[C@@H](Cc1ccc(O)cc1)C(=O)N[C@@H](C)C(=O)N[C@@H](CO)C(=O)N[C@H](C(=O)N[C@@H](CC(N)=O)C(=O)N1CCC[C@H]1C(=O)N[C@@H](CCC(=O)O)C(=O)N[C@@H](Cc1ccc(O)cc1)C(=O)N[C@@H](Cc1ccccc1)C(=O)N[C@@H](CO)C(=O)N[C@@H](C)C(=O)N[C@@H](C)C(N)=O)C(C)C)C(C)C [Peptide 4] (Palmitoyl-HRKRNNSRLGNGVLYASVNPEYFSAA-NH2) | 1000 ± 50 | >5000 | – | – |
| CCCCCCCCCCCCCCCC(=O)N[C@@H](Cc1c[nH]cn1)C(=O)N[C@@H](CCCNC(=N)N)C(=O)N[C@@H](CCCCN)C(=O)N[C@@H](CCCNC(=N)N)C(=O)N[C@@H](CC(N)=O)C(=O)N[C@@H](CC(N)=O)C(=O)N[C@@H](CO)C(=O)N[C@@H](CCCNC(=N)N)C(=O)N[C@@H](CC(C)C)C(=O)NCC(=O)N[C@@H](CC(N)=O)C(=O)NCC(=O)N[C@H](C(=O)N[C@@H](CC(C)C)C(=O)N[C@@H](Cc1ccc(O)cc1)C(=O)N[C@@H](C)C(=O)N[C@@H](CO)C(=O)N[C@H](C(N)=O)C(C)C)C(C)C [Peptide 5, Pal-HRKRNNSRLGNGVLYASV-NH2] (Palmitoyl-HRKRNNSRLGNGVLYASV-NH2) | 450 ± 50 | 1450 ± 300 | increased the potency | – |

From patent US20110195911A1, “SYNTHETIC ANALOGS OF THE JUXTAMEMBRANE DOMAIN OF IGF1R AND USES THEREOF” (THE UNITED STATES OF AMERICA,AS REPRESENTED BY THE …, priority 2008, published 2011)
